Measurements from US5916924A, “Remedies for liver diseases” (Meiji Milk Products Co., Ltd., priority 1997, dated 1999).
Where a name gives a salt, the structure may show the parent alone. Read-outs that look alike come from different tables or passages of the source.

How the values were obtained:
mice (ICR, female) = test: Acute Toxicity Test; type: in vivo; conditions: intraperitoneal
Procedure: The pH was adjusted to 7.0 by use of 5N NaOH. Solutions having lower concentrations were prepared by dilution with physiological saline. Each solution (10 μl) was intraperitoneally injected to mice (ICR, female, 6-weeks old, 29 g), and the survival ratio was obtained.

[1] = tested on: liver disorder induced by carbon tetrachloride; test: GOT and GPT tests in mice with liver disorder induced by carbon tetrachloride; type: in vivo, ddY mice
Procedure: Carbon tetrachloride (5 ml, Wako Pure Chemicals) was put in a glass vial, and Panasate 800 (45 ml, Nippon Yushi Chemicals Co, Ltd.) was added to prepare a 10% (v/v) solution.
Subsequently,the total amount was made to 50 ml. An aliquot of 2 ml was diluted in 38 ml of physiological saline.
One group consisted of 10 mice. For 24 hours prior to the administration of tetrachloride, each mouse was fasted by being fed water only. 10% carbon tetrachloride/Panasate solution was intraperitoneally administered to each mice at a dose of 1 ml/kg.
Blood was collected from the abdominal aorta by use of 1-ml disposable syringes (Terumo). The blood, dispensed into 1.5 ml Eppendorf tubes, was subjected to centrifugal separation at 5,000 rpm for 10 minutes to thereby obtain serum. The activity of transaminase (GOT, GPT) in the serum thus obtained was measured. The measurement was performed by use of a Cobas Mira System (Baxter).

[2] = tested on: rat hepatocyte system in primary culture
Procedure: In separation and identification of the low molecular weight factor showing hepatocyte proliferation promoting activity derived from epithelial mucosa of the bovine small intestine, the rat hepatocyte system in primary culture was used. To this culture system, a fraction of a crude extract of bovine small intestine epithelial mucosa in the course of purification was added in the presence of high molecular weight factor extract (1%) and insulin (10 μg/ml) or in the presence of EGF (20 ng/ml) and insulin (10 μg/ml), to thereby establish an assay system for measuring the uptake of ^3 H-TdR into DNA of rat hepatocyte nuclei.
Fractions each amounting 15 ml was added to the above-mentioned assay system and the uptake of ^3 H-TdR was measured.

[3] = intraperitoneal, 2.8 mg/kg, 2 times

SMILES	Survival (mice (ICR, female); 0.5 g/kg (as EA), 1 day after admin.)	Survival (mice (ICR, female); 0.5 g/kg (as EA), 6 days after admin.)	Survival (mice (ICR, female); 0.5 g/kg (as EA), day of administration)	Survival (mice (ICR, female); 1.25 g/kg (as EA), 1 day after admin.)	Survival (mice (ICR, female); 1.25 g/kg (as EA), 6 days after admin.)	Survival (mice (ICR, female); 1.25 g/kg (as EA), day of administration)	time to death after administration (mice (ICR, female); 2.5 g/kg) [min]	Survival (mice (ICR, female); 2.5 g/kg (as EA), day of administration)	time to death after administration (mice (ICR, female); 5.0 g/kg) [min]	Survival (mice (ICR, female); 5.0 g/kg (as EA), day of administration)	Survival (mice (ICR, female); doses equal to or less than 1.25 g/kg, six days)	area of necrosis in histopathological profile of the liver ([1]; 2.8 mg/kg i.p. and 16 mg/kg p.o.)	serum GOT level [1, 3]	serum GPT level [1, 3]	serum GOT level ([1]; peroral, 16 mg/kg, once)	serum GPT level ([1]; peroral, 16 mg/kg, once)	3H-TdR uptake activity ([2]; in the presence of EGF)	3H-TdR uptake activity ([2]; in the presence of the high molecular weight factor extract)
NCCO [EA-HC1, monoethanolamine-HCl]	4/4	4/4	4/4	3/3	3/3	3/3	≤ 30	0/4	≤ 30	0/4	alive when six days had passed							
NCCO [ethanolamine, monoethanolamine]												tendency that the area of necrosis was reduced	significantly decreased	significantly decreased	significantly decreased	significantly decreased	synergistic growth-stimulating effects	synergistic growth-stimulating effects
